Tests used:
[1] = test system: apo(a) gene; assay: Test on suppression of apo(a) gene expression (luciferase assay in HepG2 cells); format: cell-based, human; settings: final concentration of 2 μM, 48 hours; for inhibition at 2 µM: Homo sapiens, relative to DMSO control group, read-out: Expression ratio (%) of apo(a) gene; for effect on expression of apo(a) gene (in words): conclusion from Table 5
Experimental: This test was carried out in accordance with the method described in "BIOCHEMICAL AND BIOPHYSICAL RESEARCH COMMUNICATIONS 227, 570-575[…] ARTICLE No. 1547". Described specifically, 2 μg/mL of an apo(a) gene (1441 base pairs) separated from the blood of normal volunteers was introduced into HepG2 cells (2×10^5 cells/mL), followed by culturing for 16 hours. Compound 4 was dissolved in DMSO (dimethylsulfoxide) to give a final concentration of 2 μM, to which the cultured cells were added. After culturing for further 48 hours, the expression of an apo(a) gene was measured regarding it as luciferases reaction and therefore, using luciferases assay system (Picagene) of Toyo Ink Mfg. Co., Ltd. for the analysis of gene expression. Namely, the cultured HepG2 cells were dissolved in a liquid to dissolve them therein. The resulting solution was centrifuged to obtain a supernatant. To 200 μl of the resulting supernatant was added 100 μl of a […] substrate, followed by mixing for 15 seconds. The luminescence was measured by a chemo-bioluminescence measuring device (Luminoscan RS) of Dainippon Pharmaceutical Co., Ltd. and expression ratio of an apo(a) gene was determined. The expression ratio of an apo(a) gene was calculated from the ratio to the luminescence of a group (control group) to which the same amount of DMSO had been added. As comparative compounds, pravastatin (HMG-COA reductase inhibitor, sterol synthesis inhibitor) and bezafibrate (fibrate series medicament, antihyperlipoproteinemic) were treated in a similar manner and provided for the test.

[2] = test system: Lp(a); assay: A test on lowering of the Lp(a) level in crab-eating monkeys; format: in vivo, crab-eating monkey; settings: oral 30 mg/kg, three weeks; for Changing ratio (%) of Lp(a): male, 5 per group, Lp(a) level in blood, average value; for effect on Lp(a) level (in words): conclusion from Table 6
Experimental: Crab-eating monkeys (male, 2.4 to 3.9 kg in weight) were reared in groups, each group consisting of 5 monkeys. Compound 4 was suspended in a 0.5%, HPMC (hydroxypropylmethyl cellulose) solution in an amount of 30 mg/5 mL, whereby the test compound was prepared. To the specimen-administered group, the test compound was orally administered at a dose of 30 mg/kg. At the starting time of administration and three weeks after administration, the Lp(a) level in the blood of the tested animals was measured. For the measurement, a kit ("Immunosearch Lp(a) TIA") commercially available from Cosmo Bio Co., Ltd. was employed. Namely, according to the procedure as indicated in the kit, the measurement was carried out by adding 256 μl of a phosphate buffer to 7 μl of the serum and then adding the goat anti-human Lp(a) serum to the resulting mixture. For the measurement, a biochemical automatic analyzer ("Hitachi 7170"; product of Hitachi Ltd.) was employed. As a comparative compound, pravastatin and bezafibrate were treated similarly and provided for the test. From the measuring results, a changing ratio (%) of the Lp(a) level at the starting time of administration relative to that three weeks after the administration was determined with regards to each of the monkeys and the average value was expressed as an Lp(a) lowering ratio.

[3] = test system: beagles; assay: Acute toxicity test in beagles; format: in vivo, beagle dog; settings: 7-month old male beagles, 2 per group, fasted 16 hours; oral 2000 mg/kg in 0.5% HPMC
Experimental: After 7-month old beagles (male, each group consisting of 2 beagles) were fasted for 16 hours, Compound 4 suspended in a 0.5%, HPMC solution was orally administered at a dose of 2000 mg/kg.

## CC(C)(Oc1ccc(CCNC(=O)c2ccc(Cl)cc2)cc1)C(=O)O [Bezafibrate, bezafibrate]
[1]
  inhibition at 2 µM: -3%
  effect on expression of apo(a) gene (in words): reinforced the expression of the apo(a) gene
[2]
  Changing ratio (%) of Lp(a): +8%
  effect on Lp(a) level (in words): increased the Lp(a) level

## CC(C)(C)c1ccc(N2C[C@@H](COc3ccc(C(=O)O)cc3)CC2=O)cc1 [Compound 4, (S)-(+)-4-[1-(4-tert-butylphenyl)-2-pyrrolidon-4-yl]methoxybenzoic acid]
[3]
  death cases: neither death case
  serious side effects: nor serious side effects were recognized
[1]
  inhibition at 2 µM: 24%
  effect on expression of apo(a) gene (in words): exhibited excellent effects for suppressing the expression of an apo(a) gene
[2]
  Changing ratio (%) of Lp(a): -33%
  effect on Lp(a) level (in words): exhibited excellent Lp(a) lowering effects

## CC[C@H](C)C(=O)O[C@H]1C[C@H](O)C=C2C=C[C@H](C)[C@H](CC[C@@H](O)C[C@@H](O)CC(=O)O)[C@H]21 [Pravastatin, pravastatin]
[1]
  inhibition at 2 µM: -27%
  effect on expression of apo(a) gene (in words): reinforced the expression of the apo(a) gene
[2]
  Changing ratio (%) of Lp(a): +35%
  effect on Lp(a) level (in words): increased the Lp(a) level

From patent US6166036A, “Lp(a)-lowering agent and apolipoprotein (a) formation suppressing agent” (Taiho Pharmaceutical Co., Ltd., priority 1998, dated 2000)
